Key:
[1] = Antiinflammatory activity in human neutrophils assessed as inhibition of fMLP/CB-induced superoxide anion generation by measuring superoxide dismutase-inhibitable reduction of ferricytochrome c at 10 uM preincubated for 5 mins followed by fMLP/CB-induction measured after 10 mins; type: functional; details: Neutrophil
[2] = Antiinflammatory activity in human neutrophils assessed as inhibition of fMLP/CB-induced elastase release at 20 uM using MeO-Suc-Ala-Ala-Pro-Val-p-nitroanilide as elastase substrate preincubated for 5 mins followed by fMLP/CB-induction; type: functional; details: Neutrophil
[3] = Cytotoxicity against human DLD1 cells by Alamar Blue assay; type: functional, cell-based; details: DLD-1
[4] = Cytotoxicity against human A549 cells by Alamar Blue assay
[5] = Antiinflammatory activity in human neutrophils assessed as inhibition of fMLP/CB-induced superoxide anion generation by measuring superoxide dismutase-inhibitable reduction of ferricytochrome c at 20 uM preincubated for 5 mins followed by fMLP/CB-induction measured after 10 mins; type: functional; details: Neutrophil
[6] = Antiinflammatory activity in human neutrophils assessed as inhibition of fMLP/CB-induced elastase release at 10 uM using MeO-Suc-Ala-Ala-Pro-Val-p-nitroanilide as elastase substrate preincubated for 5 mins followed by fMLP/CB-induction; type: functional; details: Neutrophil
[7] = Cytotoxicity against human LNCAP cells by Alamar Blue assay; type: functional, cell-based
Yersinia enterocolitica = assay: Antibacterial activity against Yersinia enterocolitica ATCC 23715 assessed as zone of inhibition at 100 ug/disk measured after 24 hrs by agar disk-diffusion method; type: functional; details: ATCC 23715, 24 h, read-out: IZ
Serratia marcescens = assay: Antibacterial activity against Serratia marcescens ATCC 25419 assessed as zone of inhibition at 100 ug/disk measured after 24 hrs by agar disk-diffusion method; type: functional; details: ATCC 25419, 24 h, read-out: IZ
Klebsiella aerogenes = assay: Antibacterial activity against Enterobacter aerogenes ATCC 13048 assessed as zone of inhibition at 100 ug/disk measured after 24 hrs by agar disk-diffusion method; type: functional; details: ATCC 13048, 24 h, read-out: IZ

SMILES: CO[C@@]1(C)CC[C@]2(C[C@H]1Br)C(C)=C[C@H](O)CC2(C)C
- inhibition at 10 µM [1]: 12%
- inhibition at 20 µM [2]: 24%
- IC50 [3]: ≥ 10 µM
- IC50 [4]: ≥ 10 µM
- inhibition at 20 µM [5]: 10%
- inhibition at 10 µM [6]: 5%
- IC50 [7]: ≥ 10 µM

SMILES: C=C1C[C@@H](O)[C@@H](Br)C(C)(C)[C@@]12C=C/C(=C\Br)CC2
- inhibition at 10 µM [1]: 24%
- inhibition at 20 µM [2]: 12%
- zone of inhibition at 100 µg/disc (Yersinia enterocolitica): 3 mm
- IC50 [3]: ≥ 10 µM
- IC50 [4]: ≥ 10 µM
- inhibition at 20 µM [5]: 10%
- inhibition at 10 µM [6]: 8%
- zone of inhibition at 100 µg/disc (Serratia marcescens): 4 mm
- IC50 [7]: ≥ 10 µM

SMILES: CC1=CC(=O)CC(C)(C)[C@@]12C=CC(=O)CC2
- inhibition at 10 µM [1]: 4%
- inhibition at 20 µM [2]: 32%
- IC50 [3]: ≥ 10 µM
- IC50 [4]: ≥ 10 µM
- inhibition at 20 µM [5]: 16%
- inhibition at 10 µM [6]: 18%
- IC50 [7]: ≥ 10 µM

SMILES: C=C1C[C@@H](O)[C@@H](Br)C(C)(C)[C@@]12C=C[C@](O)(C(Br)Br)CC2
- inhibition at 10 µM [1]: 19%
- inhibition at 20 µM [2]: 33%
- zone of inhibition at 100 µg/disc (Yersinia enterocolitica): 4 mm
- IC50 [3]: ≥ 10 µM
- IC50 [4]: ≥ 10 µM
- inhibition at 20 µM [5]: 32%
- inhibition at 10 µM [6]: 9%
- zone of inhibition at 100 µg/disc (Serratia marcescens): 2 mm
- IC50 [7]: ≥ 10 µM

SMILES: COc1cccc2c1C(=O)c1c(O)c3c(c(O)c1C2=O)C[C@@](O)(C(=O)CO)C[C@@H]3O[C@H]1C[C@H](N)[C@H](O)[C@H](C)O1 [DOXORUBICIN]
- IC50 [3]: 2.6 µM
- IC50 [7]: 1.4 µM

SMILES: C=C1C[C@@H](O)[C@@H](Br)C(C)(C)[C@@]12C=C[C@](O)(CO)CC2
- inhibition at 10 µM [1]: 7%
- inhibition at 20 µM [2]: 29%
- IC50 [3]: ≥ 10 µM
- IC50 [4]: ≥ 10 µM
- inhibition at 20 µM [5]: 14%
- inhibition at 10 µM [6]: 9%
- IC50 [7]: ≥ 10 µM

SMILES: CC1=C[C@H](O)CC(C)(C)[C@]12CC[C@](C)(Br)[C@H](Cl)C2
- inhibition at 10 µM [1]: 12%
- inhibition at 20 µM [2]: 19%
- IC50 [3]: ≥ 10 µM
- IC50 [4]: ≥ 10 µM
- inhibition at 20 µM [5]: 14%
- inhibition at 10 µM [6]: 12%
- IC50 [7]: ≥ 10 µM

SMILES: CC1(C)S[C@@H]2[C@H](NC(=O)[C@H](N)c3ccccc3)C(=O)N2[C@H]1C(=O)O [AMPICILLIN]
- zone of inhibition at 100 µg/disc (Yersinia enterocolitica): 8 mm
- zone of inhibition at 100 µg/disc (Klebsiella aerogenes): 11 mm
- zone of inhibition at 100 µg/disc (Serratia marcescens): 5 mm

SMILES: C=C1C[C@@H](O)[C@@H](Br)C(C)(C)[C@@]12C=CC(=O)CC2
- inhibition at 10 µM [1]: 7%
- inhibition at 20 µM [2]: 14%
- IC50 [3]: ≥ 10 µM
- IC50 [4]: ≥ 10 µM
- inhibition at 20 µM [5]: 13%
- inhibition at 10 µM [6]: 9%
- zone of inhibition at 100 µg/disc (Klebsiella aerogenes): 3 mm
- IC50 [7]: ≥ 10 µM

SMILES: CC1(C)[C@H](Br)[C@H](O)C[C@@]2(CO2)[C@@]12CCC(=O)[C@@H]1O[C@@H]12
- inhibition at 10 µM [1]: 9%
- inhibition at 20 µM [2]: 18%
- IC50 [3]: ≥ 10 µM
- IC50 [4]: ≥ 10 µM
- inhibition at 20 µM [5]: 8%
- inhibition at 10 µM [6]: 2%
- IC50 [7]: ≥ 10 µM

SMILES: CC[C@H](Nc1ncnc2[nH]cnc12)c1nc2cccc(F)c2c(=O)n1-c1ccccc1 [IDELALISIB]
- inhibition at 10 µM [1]: 103%
- inhibition at 10 µM [6]: 100%

SMILES: C=C1C[C@@H](O)[C@@H](Br)C(C)(C)[C@@]12C=C/C(=C/Br)CC2
- inhibition at 10 µM [1]: 18%
- inhibition at 20 µM [2]: 69%
- IC50 [3]: ≥ 10 µM
- IC50 [4]: ≥ 10 µM
- inhibition at 20 µM [5]: 10%
- inhibition at 10 µM [6]: 34%
- IC50 [7]: ≥ 10 µM

SMILES: CC1=CC(=O)CC(C)(C)[C@@]12C=C/C(=C\Br)CC2
- inhibition at 10 µM [1]: 6%
- inhibition at 20 µM [2]: 14%
- IC50 [3]: ≥ 10 µM
- IC50 [4]: ≥ 10 µM
- inhibition at 20 µM [5]: 12%
- inhibition at 10 µM [6]: 3%
- zone of inhibition at 100 µg/disc (Serratia marcescens): 8 mm
- IC50 [7]: ≥ 10 µM

SMILES: C=C1C[C@H](O)[C@@H](Br)C(C)(C)[C@@]12C=C[C@](C)(O)CC2 [ISORIGIDOL]
- inhibition at 10 µM [1]: 11%
- inhibition at 20 µM [2]: 12%
- IC50 [3]: ≥ 10 µM
- IC50 [4]: ≥ 10 µM
- inhibition at 20 µM [5]: 23%
- inhibition at 10 µM [6]: 9%
- IC50 [7]: ≥ 10 µM

SMILES: C=C1C[C@@H](O)[C@@H](Br)C(C)(C)[C@]12CC[C@](C)(Br)[C@@H](Cl)C2
- inhibition at 10 µM [1]: 25%
- inhibition at 20 µM [2]: 60%
- zone of inhibition at 100 µg/disc (Yersinia enterocolitica): 2 mm
- IC50 [3]: ≥ 10 µM
- IC50 [4]: ≥ 10 µM
- inhibition at 20 µM [5]: 48%
- inhibition at 10 µM [6]: 44%
- zone of inhibition at 100 µg/disc (Klebsiella aerogenes): 2 mm
- zone of inhibition at 100 µg/disc (Serratia marcescens): 2 mm
- IC50 [7]: ≥ 10 µM

SMILES: CC1=C[C@H](O)[C@@H](Br)C(C)(C)[C@@]12C=C[C@](C)(O)CC2
- inhibition at 10 µM [1]: 13%
- inhibition at 20 µM [2]: 12%
- IC50 [3]: ≥ 10 µM
- IC50 [4]: ≥ 10 µM
- inhibition at 20 µM [5]: 12%
- inhibition at 10 µM [6]: 1%
- IC50 [7]: ≥ 10 µM

SMILES: C=C1C[C@@H](O)[C@@H](Br)C(C)(C)[C@]12CCC(=O)[C@H]1O[C@H]12
- inhibition at 10 µM [1]: 6%
- inhibition at 20 µM [2]: 14%
- IC50 [3]: ≥ 10 µM
- IC50 [4]: ≥ 10 µM
- inhibition at 20 µM [5]: 6%
- inhibition at 10 µM [6]: 3%
- IC50 [7]: ≥ 10 µM

SMILES: C=C1C[C@@H](O)[C@@H](Br)C(C)(C)[C@@]12C=C[C@@](O)(C(Br)Br)CC2 [MAILIOHYDRIN]
- inhibition at 10 µM [1]: 13%
- inhibition at 20 µM [2]: 22%
- zone of inhibition at 100 µg/disc (Yersinia enterocolitica): 2 mm
- IC50 [3]: ≥ 10 µM
- IC50 [4]: ≥ 10 µM
- inhibition at 20 µM [5]: 16%
- inhibition at 10 µM [6]: 16%
- zone of inhibition at 100 µg/disc (Klebsiella aerogenes): 1 mm
- zone of inhibition at 100 µg/disc (Serratia marcescens): 2 mm
- IC50 [7]: ≥ 10 µM

SMILES: CC1=CC(=O)CC(C)(C)[C@@]12C=C/C(=C/Br)CC2
- inhibition at 10 µM [1]: 7%
- inhibition at 20 µM [2]: 30%
- IC50 [3]: ≥ 10 µM
- IC50 [4]: ≥ 10 µM
- inhibition at 20 µM [5]: 10%
- inhibition at 10 µM [6]: 5%
- IC50 [7]: ≥ 10 µM

SMILES: C=C1CC[C@]2(C[C@@H]1O)C(=C)C[C@H](O)[C@@H](Br)C2(C)C
- inhibition at 10 µM [1]: 10%
- inhibition at 20 µM [2]: 24%
- IC50 [3]: ≥ 10 µM
- IC50 [4]: ≥ 10 µM
- inhibition at 20 µM [5]: 14%
- inhibition at 10 µM [6]: 5%
- IC50 [7]: ≥ 10 µM

SMILES: Cc1ccc([C@]2(C)C[C@H](O)[C@@H](Br)C2(C)C)cc1
- inhibition at 10 µM [1]: 17%
- inhibition at 20 µM [2]: 28%
- IC50 [3]: ≥ 10 µM
- IC50 [4]: ≥ 10 µM
- inhibition at 20 µM [5]: 26%
- inhibition at 10 µM [6]: 7%
- IC50 [7]: ≥ 10 µM

Reference: ChEMBL document CHEMBL3867445, “Halogenated Sesquiterpenoids from the Red Alga Laurencia tristicha Collected in Taiwan” (J Nat Prod, 2016)
